Reference: patent US8124610B2, “Sodium channel inhibitors” (Icagen Inc., priority 2007, dated 2012)

Target: T1, hSCN9A (Homo sapiens, UniProt Q15858)
T1 construct: expressed in transfected cells
Test: Whole-cell patch-clamp electrophysiology (conventional or PatchXpress), HEK cells expressing hSCN9A, estimated IC-50
Format: cell-based
Details: estimated IC-50, HEK cells expressing hSCN9A; class symbols or bounds; read-out: SCN9A EIC-50
Procedure: Human Embryonic Kidney (HEK) cells were transfected with hSCN3A or hSCN9A constructs using lipofectamine reagent (Invitrogen), using standard techniques. Cells stably expressing the hSCN3A or hSCN9A constructs were identified by their resistance to G-418 (400 μg/ml). Clones were screened for expression using the whole-cell voltage-clamp technique. HEK cells stably transfected with hSCN3A or hSCN9A were maintained in DMEM medium supplemented with 10% heat-inactivated fetal bovine serum and 400 μg/ml G418 sulfate in an incubator at 37° C. with a humidified atmosphere of 10% CO2. For HTS, cells were harvested from flasks by trypsinization and replated in an appropriate multi-well plate (typically 96 or 384 wells/plate) such that confluence would be achieved within 24 hours of plating. For electrophysiological studies, cells were removed from the culture flask by brief trypsinization and replated at low density onto glass cover slips. Cells were typically used for electrophysiological experiments within 24 to 72 h after plating. Cover slips containing HEK cells expressing hSCN3A or hSCN9A were placed in a bath on the stage of an inverted microscope and perfused (approximately 1 ml/min) with extracellular solution of the following composition: 138 mM NaCl, 2 mM CaCl2, 5.4 mM KCl, 1 mM MgCl2, 10 mM glucose, and 10 mM HEPES, pH 7.4, with NaOH. […] All recordings were made at room temperature (22-24° C.) using AXOPATCH 200B amplifiers and PCLAMP software (Axon Instruments, Burlingame, Calif.) or PatchXpress 7000 hardware and associated software (Axon Instruments, Burlingame, Calif.). hSCN3A or hSCN9A currents in HEK cells were measured using the whole-cell configuration of the patch-clamp technique (Hamill et al., 1981). […] As a result, voltage errors were negligible and no correction was applied. Current records were acquired at 20 to 50 KHz and filtered at 5 to 10 KHz. HEK cells stably transfected with hSCN3A or hSCN9A were viewed under Hoffman contrast optics and placed in front of an array of flow pipes emitting either control or compound-containing extracellular solutions. All compounds were dissolved in dimethyl sulfoxide to make 10 mM stock solutions, which were then diluted into extracellular solution to attain the final concentrations desired. […] The voltage-dependence of inactivation was determined by applying a series of depolarizing prepulses (8 sec long in 10 mV increments) from a negative holding potential. The voltage was then immediately stepped to 0 mV to assess the magnitude of the sodium current. Currents elicited at 0 mV were plotted as a function of prepulse potential to allow estimation of the voltage midpoint of inactivation (V1/2). Cells were then voltage clamped at the empirically determined V1/2. Compounds were tested for their ability to inhibit hSCN3A or hSCN9A sodium channels by activating the channel with a 20 msec voltage step to 0 mV following an 8 second conditioning prepulse to the empirically determined V1-2 (Table B). Compound effect (% inhibition) was determined by difference in current amplitude before and after application of test compounds. […] In some cases electrophysiological assays were conducted with PatchXpress 7000 hardware and associated software (Molecular Devices Corp) (Table B). All assay buffers and solutions were identical to those used in conventional whole-cell voltage clamp experiments described above. hSCN3A or hSCN9A containing cells were grown as above to 50%-80% confluency and harvested by trypsinization. Trypsinized cells were washed and resuspended in extracellular buffer at a concentration of 1×10^6 cells/ml. The onboard liquid handling facility of the PatchXpress was used for dispensing cells and application of test compounds. Determination of the voltage midpoint of inactivation was as described for conventional whole-cell recordings. Cells were then voltage-clamped to the empirically determined V1/2 and current was activated by a 20 msec voltage step to 0 mV.

T1 sequence (Q15858 whole entry): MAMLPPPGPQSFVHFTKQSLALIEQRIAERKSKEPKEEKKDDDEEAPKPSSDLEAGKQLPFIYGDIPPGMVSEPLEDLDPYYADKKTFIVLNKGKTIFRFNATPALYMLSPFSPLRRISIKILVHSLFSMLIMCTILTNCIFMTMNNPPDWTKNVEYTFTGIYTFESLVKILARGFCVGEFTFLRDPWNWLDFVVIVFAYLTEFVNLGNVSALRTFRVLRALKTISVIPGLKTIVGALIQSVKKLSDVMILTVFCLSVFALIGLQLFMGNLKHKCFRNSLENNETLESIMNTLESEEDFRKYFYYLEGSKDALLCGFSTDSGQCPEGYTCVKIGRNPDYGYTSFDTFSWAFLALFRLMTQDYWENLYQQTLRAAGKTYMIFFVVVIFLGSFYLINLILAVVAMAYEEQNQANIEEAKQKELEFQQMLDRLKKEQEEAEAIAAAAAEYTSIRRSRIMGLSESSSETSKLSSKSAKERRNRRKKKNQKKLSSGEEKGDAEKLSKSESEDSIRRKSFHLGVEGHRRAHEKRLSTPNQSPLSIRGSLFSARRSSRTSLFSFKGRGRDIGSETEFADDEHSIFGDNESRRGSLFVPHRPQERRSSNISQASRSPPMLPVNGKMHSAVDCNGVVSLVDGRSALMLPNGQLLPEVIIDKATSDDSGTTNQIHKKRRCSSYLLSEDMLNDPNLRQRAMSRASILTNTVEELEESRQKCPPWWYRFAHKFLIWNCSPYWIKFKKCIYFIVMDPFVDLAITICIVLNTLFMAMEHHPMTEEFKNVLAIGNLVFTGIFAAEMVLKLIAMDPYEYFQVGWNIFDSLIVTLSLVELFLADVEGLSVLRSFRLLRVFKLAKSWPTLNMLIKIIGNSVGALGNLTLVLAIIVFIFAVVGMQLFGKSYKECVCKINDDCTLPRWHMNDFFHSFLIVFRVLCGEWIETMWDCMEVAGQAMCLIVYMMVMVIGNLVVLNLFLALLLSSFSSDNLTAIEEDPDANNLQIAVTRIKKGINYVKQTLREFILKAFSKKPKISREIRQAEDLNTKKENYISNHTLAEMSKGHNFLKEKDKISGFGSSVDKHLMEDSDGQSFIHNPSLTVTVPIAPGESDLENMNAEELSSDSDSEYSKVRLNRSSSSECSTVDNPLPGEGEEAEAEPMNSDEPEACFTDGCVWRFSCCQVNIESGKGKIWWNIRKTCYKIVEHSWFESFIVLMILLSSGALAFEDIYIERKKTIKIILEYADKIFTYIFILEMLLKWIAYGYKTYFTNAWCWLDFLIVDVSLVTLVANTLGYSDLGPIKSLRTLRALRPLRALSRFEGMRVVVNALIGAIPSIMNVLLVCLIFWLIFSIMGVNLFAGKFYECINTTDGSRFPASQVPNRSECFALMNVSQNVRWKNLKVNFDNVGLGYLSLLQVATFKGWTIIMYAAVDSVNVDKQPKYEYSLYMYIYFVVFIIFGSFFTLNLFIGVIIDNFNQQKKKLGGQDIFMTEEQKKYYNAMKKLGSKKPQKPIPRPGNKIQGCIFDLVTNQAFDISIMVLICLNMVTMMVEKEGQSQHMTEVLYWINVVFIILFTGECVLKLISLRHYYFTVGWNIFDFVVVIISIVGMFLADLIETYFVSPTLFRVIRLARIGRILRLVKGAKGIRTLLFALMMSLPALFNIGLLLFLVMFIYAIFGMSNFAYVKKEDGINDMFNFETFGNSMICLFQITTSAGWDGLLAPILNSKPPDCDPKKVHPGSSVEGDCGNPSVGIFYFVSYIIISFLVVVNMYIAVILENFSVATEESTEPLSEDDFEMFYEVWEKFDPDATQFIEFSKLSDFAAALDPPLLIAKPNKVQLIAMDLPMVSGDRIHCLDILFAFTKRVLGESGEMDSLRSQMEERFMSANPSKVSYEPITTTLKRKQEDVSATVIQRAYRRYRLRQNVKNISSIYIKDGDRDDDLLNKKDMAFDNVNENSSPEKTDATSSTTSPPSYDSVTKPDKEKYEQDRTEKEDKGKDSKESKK

SMILES | IC50 [nM]
O=S(=O)(Nc1ccncn1)c1ccc(Nc2ccn(Cc3ccc(Cl)cc3)n2)cc1F [Compound 262, 4-(1-(4-chlorobenzyl)-1H-pyrazol-3-ylamino)-2-fluoro-N-(pyrimidin-4-yl)benzenesulfonamide] | 2000 to 10000
Cc1cc(Nc2ccc(S(=O)(=O)Nc3ncc(C)s3)c(F)c2)n(-c2ccccc2)n1 [Compound 239, 2-fluoro-4-(3-methyl-1-phenyl-1H-pyrazol-5-ylamino)-N-(5-methylthiazol-2-yl)benzenesulfonamide] | 2000 to 10000
O=S(=O)(Nc1nccs1)c1ccc(Nc2nnc(Cc3ccc(Cl)cc3)s2)cc1 [Compound 120, 4-(5-(4-chlorobenzyl)-1,3,4-thiadiazol-2-ylamino)-N-(thiazol-2-yl)benzenesulfonamide] | 2000 to 10000
Cc1cc(Nc2ccn(Cc3ccc(Cl)cc3)n2)ccc1S(=O)(=O)Nc1nccs1 [Compound 271, 4-(1-(4-chlorobenzyl)-1H-pyrazol-3-ylamino)-2-methyl-N-(thiazol-2-yl)benzenesulfonamide] | 2000 to 10000
COCc1nnc(NS(=O)(=O)c2ccc(Nc3cc(C)nn3-c3ccccc3)cc2F)s1 [Compound 249, 2-fluoro-N-(5-(methoxymethyl)-1,3,4-thiadiazol-2-yl)-4-(3-methyl-1-phenyl-1H-pyrazol-5-ylamino)benzenesulfonamide] | > 1000
O=S(=O)(Nc1nccs1)c1ccc(Nc2ccnn2-c2ccccc2)cc1F [Compound 168, 2-fluoro-4-(1-phenyl-1H-pyrazol-5-ylamino)-N-(thiazol-2-yl)benzenesulfonamide] | < 2000
Cc1cc(Nc2ccc(S(=O)(=O)Nc3nccs3)cc2)n(Cc2ccncc2)n1 [Compound 131, 4-(3-methyl-1-(pyridin-4-ylmethyl)-1H-pyrazol-5-ylamino)-N-(thiazol-2-yl)benzenesulfonamide] | > 1000
Cn1nc(Cc2ccc(Cl)cc2)cc1Nc1ccc(S(=O)(=O)Nc2nccs2)c(F)c1 [Compound 141, 4-(3-(4-chlorobenzyl)-1-methyl-1H-pyrazol-5-ylamino)-2-fluoro-N-(thiazol-2-yl)benzenesulfonamide] | < 2000
Cc1cc(Nc2ccc(S(=O)(=O)Nc3nccs3)c(F)c2)n(C(C)(C)C)n1 [Compound 192, 4-(1-tert-butyl-3-methyl-1H-pyrazol-5-ylamino)-2-fluoro-N-(thiazol-2-yl)benzenesulfonamide] | 2000 to 10000
Cc1cc(Nc2ccc(S(=O)(=O)Nc3nncs3)c(F)c2)n(-c2ccccc2)n1 [Compound 238, 2-fluoro-4-(3-methyl-1-phenyl-1H-pyrazol-5-ylamino)-N-(1,3,4-thiadiazol-2-yl)benzenesulfonamide] | 2000 to 10000
Cn1nc(Cc2ccc(Cl)c(F)c2)cc1Nc1ccc(S(=O)(=O)Nc2nccs2)cc1 [Compound 196, 4-(3-(4-chloro-3-fluorobenzyl)-1-methyl-1H-pyrazol-5-ylamino)-N-(thiazol-2-yl)benzenesulfonamide] | < 2000
COc1ccc(Cc2cc(Nc3ccc(S(=O)(=O)Nc4nccs4)cc3)n(C)n2)cc1 [Compound 126, 4-(3-(4-methoxybenzyl)-1-methyl-1H-pyrazol-5-ylamino)-N-(thiazol-2-yl)benzenesulfonamide] | > 1000
Cn1nc(CC(C)(C)C)cc1Nc1ccc(S(=O)(=O)Nc2nccs2)cc1 [Compound 125, 4-(1-methyl-3-neopentyl-1H-pyrazol-5-ylamino)-N-(thiazol-2-yl)benzenesulfonamide] | 2000 to 10000
Cn1ncc(-c2ccccc2)c1Nc1ccc(S(=O)(=O)Nc2nccs2)c(F)c1 [Compound 148, 2-fluoro-4-(1-methyl-4-phenyl-1H-pyrazol-5-ylamino)-N-(thiazol-2-yl)benzenesulfonamide] | 2000 to 10000
O=S(=O)(Nc1nc(C(F)(F)F)cs1)c1ccc(Nc2nc(Cc3ccc(Cl)cc3)cs2)cc1 [Compound 257, 4-(4-(4-chlorobenzyl)thiazol-2-ylamino)-N-(4-(trifluoromethyl)thiazol-2-yl)benzenesulfonamide] | 2000 to 10000
O=S(=O)(Nc1nccs1)c1ccc(Nc2nnc(Cc3ccc(Cl)cc3)o2)cc1 [Compound 118, 4-(5-(4-chlorobenzyl)-1,3,4-oxadiazol-2-ylamino)-N-(thiazol-2-yl)benzenesulfonamide] | > 1000
O=S(=O)(Nc1nncs1)c1ccc(Nc2ccn(Cc3ccc(Cl)cc3)n2)cc1F [Compound 232, 4-(1-(4-chlorobenzyl)-1H-pyrazol-3-ylamino)-2-fluoro-N-(1,3,4-thiadiazol-2-yl)benzenesulfonamide] | < 2000
Cc1cc(Nc2ccc(S(=O)(=O)Nc3nccs3)c(C(F)(F)F)c2)n(-c2ccccc2)n1 [Compound 272, 4-(3-methyl-1-phenyl-1H-pyrazol-5-ylamino)-N-(thiazol-2-yl)-2-(trifluoromethyl)benzenesulfonamide] | > 1000
O=S(=O)(Nc1nnc(C2CC2)s1)c1ccc(Nc2ccn(Cc3ccc(Cl)cc3)n2)cc1F [Compound 253, 4-(1-(4-chlorobenzyl)-1H-pyrazol-3-ylamino)-N-(5-cyclopropyl-1,3,4-thiadiazol-2-yl)-2-fluorobenzenesulfonamide] | > 1000
N#Cc1cc(S(=O)(=O)Nc2ncns2)ccc1Nc1nnc(-c2ccccc2)c(O)n1 [Compound 273, 3-cyano-4-(5-hydroxy-6-phenyl-1,2,4-triazin-3-ylamino)-N-(1,2,4-thiadiazol-5-yl)benzenesulfonamide] | > 1000
Cc1cc(Nc2ccc(S(=O)(=O)Nc3nccs3)c(F)c2)n(C2CCCC2)n1 [Compound 169, 4-(1-cyclopentyl-3-methyl-1H-pyrazol-5-ylamino)-2-fluoro-N-(thiazol-2-yl)benzenesulfonamide] | < 2000
N#Cc1cn(-c2ccccc2)nc1Nc1ccc(S(=O)(=O)Nc2nccs2)c(F)c1 [Compound 180, 4-(4-cyano-1-phenyl-1H-pyrazol-3-ylamino)-2-fluoro-N-(thiazol-2-yl)benzenesulfonamide] | 2000 to 10000
Cc1ccc(Cc2cc(Nc3ccc(S(=O)(=O)Nc4nccs4)c(F)c3)n(C)n2)cc1 [Compound 159, 2-fluoro-4-(1-methyl-3-(4-methylbenzyl)-1H-pyrazol-5-ylamino)-N-(thiazol-2-yl)benzenesulfonamide] | < 2000
Cc1nn(C(C)(C)C)c(Nc2ccc(S(=O)(=O)Nc3nccs3)cc2)c1-c1ccccc1 [Compound 123, 4-(1-tert-butyl-3-methyl-4-phenyl-1H-pyrazol-5-ylamino)-N-(thiazol-2-yl)benzenesulfonamide] | > 1000
Cc1cc(Nc2ccc(S(=O)(=O)Nc3nnc(C(C)C)s3)c(F)c2)n(-c2ccccc2)n1 [Compound 252, 2-fluoro-N-(5-isopropyl-1,3,4-thiadiazol-2-yl)-4-(3-methyl-1-phenyl-1H-pyrazol-5-ylamino)benzenesulfonamide] | > 1000
Cc1cc(Nc2ccc(S(=O)(=O)Nc3nccs3)c(C)c2)n(-c2ccccc2)n1 [Compound 268, 2-methyl-4-(3-methyl-1-phenyl-1H-pyrazol-5-ylamino)-N-(thiazol-2-yl)benzenesulfonamide] | 2000 to 10000
CC(C)c1nnc(NS(=O)(=O)c2ccc(Nc3ccn(Cc4ccc(Cl)cc4)n3)cc2F)s1 [Compound 256, 4-(1-(4-chlorobenzyl)-1H-pyrazol-3-ylamino)-2-fluoro-N-(5-isopropyl-1,3,4-thiadiazol-2-yl)benzenesulfonamide] | > 1000
O=S(=O)(Nc1nccs1)c1ccc(Nc2ccn(Cc3ccccc3)n2)cc1F [Compound 211, 4-(1-benzyl-1H-pyrazol-3-ylamino)-2-fluoro-N-(thiazol-2-yl)benzenesulfonamide] | 2000 to 10000
